# From US6656690B2, “Mass spectrometric methods for biomolecular screening” (priority 1998, dated 2003)
# pKd: −log10 of the molar value.
# Target: 27-mer model of the bacterial A site region, chimeric C
# Assay: Binding to 27-mer A site model as chimeric 2'-O-methylribonucleotide with three deoxyadenosines (C)
# Conditions: RNA C
# Procedure: The 27-mer model of a segment of the bacterial A site region has been prepared as a full ribonucleotide (see FIG. 27, compound R), and as a chimeric 2′-O-methylribonucleotide containing three deoxyadenosine residues (see FIG. 27, compound C). RNAs R and C have been prepared using conventional phosphoramidite chemistry on solid support. Phosphoramidites were purchased from Glen Research and used as 0.1 M solutions in acetonitrile. RNA R was prepared following the procedure given in Wincott, et al., Nucl. Acids Res., 1995, 23, 2677-2684, the disclosure of which is incorporated herein by reference in its entirety. RNA C was prepared using standard coupling cycles, deprotected, and precipitated from 10 M NH4OAc. The aminoglycoside paromomycin binds to both R and C with kD values of 0.25 and 0.45 micromolar, respectively. The reported kD values are around 0.2 μM. […]
# The mass spectrum obtained from a 5 μM solution of C mixed with 125 nM paromomycin (FIG. 28A) contains [M-5H]5− ions from free C at m/z 1783.6 and the [M-5H]5− ions of the paromomycin-C complex at m/z 1907.3. […] Signals from the [M-4H]4− ions of C and the complex are detected at m/z 2229.8 and 2384.4, respectively. […] Fragment ions are detected at m/z 1005.6 (w6)2−, 1065.8 (a7-B)2−, 1162.6 (w7)2−, 1756.5 (M-Ad)5−, 2108.9 (w21-Ad)3−, 2153.4 (a20-B)3−, 2217.8 (w21)3−, and 2258.3 (a21-B)3−. […]
smiles,measurement,value
NC[C@@H]1O[C@H](O[C@H]2[C@@H](O)[C@H](O[C@@H]3[C@@H](O)[C@H](N)C[C@H](N)[C@H]3O[C@H]3O[C@H](CO)[C@@H](O)[C@H](O)[C@H]3N)O[C@@H]2CO)[C@H](N)[C@@H](O)[C@@H]1O [paromomycin],pKd,6.35
